Measured values: patent US7339061B2, “3-(4-oxo-4H-chromen-2-yl)-(1H)-quinolin-4-one derivatives, method for preparing same and pharmaceutical compositions containing same” (Les Laboratoires Servier, priority 2002, dated 2008)
Values belong to the compound of their own block, whether it stands above or below them.

Experiments:
[1] = test system: lung cancer cells; experiment: In vitro synergistic effect with anti-cancer agent (MTT test, Chou and Talabay analysis), lung cancer cells; assay type: cell-based; conditions: 96 hours, five concentrations of compound and of cisplatin (CDDP)
Protocol: (§1) Three cell lines which are sensitive to three anti-cancer agents are used: breast cancer cells in association with treatment with tamoxifen (TXL), lung cancer cells in association with treatment with cisplatin (CDDP), and colon cancer cells in association with treatment with SN38, a metabolite of CPT-11 (irinotecan).
(§2) The tumour cells are incubated for 96 hours together with five different concentrations of each of the compounds of the invention and five concentrations of each of the anti-cancer agents in association.
(§3) The in vitro cytotoxic activity is determined by the MTT test described in Example 24. Analysis of the data is carried out according to the method of Chou and Talabay, published in Trends Pharmaceutical Sci.—1983; 4:450.

[2] = test system: breast cancer cells; experiment: In vitro synergistic effect with anti-cancer agent (MTT test, Chou and Talabay analysis), breast cancer cells; assay type: cell-based; conditions: 96 hours, five concentrations of compound and of anti-cancer agent; method names tamoxifen (TXL) on breast cancer cells
Protocol: as §1, §2, §3

[3] = test system: Eleven cell lines from cancers of different origins and sites (lung, breast, prostate, colon, blood, bladder, skin, ovary, brain); experiment: In vitro cytotoxicity, MTT test, 96 hours incubation; assay type: cell-based; conditions: lines to which the stated IC50 range applies
Protocol: Eleven cell lines from cancers of different origins and sites (lung, breast, prostate, colon, blood, bladder, skin, ovary, brain) are cultured in order to study the various compounds in comparison to the reference substance.
The cells are incubated for 96 hours with various concentrations of compounds of the invention.
The in vitro cytotoxic activity is determined by the MTT [3-(4,5-dimethylthiazol-2-yl)-2,5-diphenyltetrazolium bromide] test as described by Carmichael in Cancer Res.—1987; 47 (4): 936-942.
The activity is expressed in terms of the IC50, that is to say the concentration which inhibits proliferation of the tumour cells by 50%.

[4] = test system: prostate cancer line (LN CaP); experiment: Apoptotic effect, TUNEL test; assay type: cell-based; conditions: LN CaP cells incubated at the IC50 concentration, 8 to 96 hours; early = 8 hours
Protocol: Study of the pro-apoptotic effects of compounds of the invention is carried out on a prostate cancer line (LN CaP). The cells were incubated for periods ranging from 8 to 96 hours at the IC50 concentration.
The TUNEL test was then carried out according to the method described by Sgonc in Trends Genetics—1994; 10:41.

Structure (SMILES): COc1cc(O)c2c(=O)cc(-c3cn(-c4ccccc4)c4ccccc4c3=O)oc2c1 [Example 7, 3-(5-Hydroxy-7-methoxy-4-oxo-4H-1-benzopyran-2-yl)-1-phenyl-1H-quinolin-4-one]
melting point: 295 to 296 °C

Structure (SMILES): O=c1c(-c2cc(=O)c3c(O)cc(O)c(C4=CCN(Cc5ccccc5)CC4)c3o2)cn(-c2ccccc2)c2ccccc12 [Example 16, 3-[5,7-Dihydroxy-8-(1-benzyl-1,2,5,6-tetrahydropyridin-4-yl)-4-oxo-4H-1-benzopyran-2-yl]-1-phenyl-1H-1,4-dihydroquinolin-4-one]
synergistic effect with cisplatin [1]: synergistic effect
synergistic effect with paclitaxel [2]: synergistic effect

Structure (SMILES): COc1cc(OC)c2c(=O)cc(-c3cn(-c4ccccc4)c4ccccc4c3=O)oc2c1C1=CCN(C)CC1 [Example 9, 3-[5,7-Dimethoxy-8-(1-methyl-1,2,5,6-tetrahydropyridin-4-yl)-4-oxo-4H-1-benzopyran-2-yl]-1-phenyl-1H-1,4-dihydroquinolin-4-one]
number of the 11 lines tested with respect to which the compound has cytotoxic activity [3]: 8 of the 11

Structure (SMILES): CN1CC=C(c2c(O)cc(O)c3c(=O)cc(-c4cn(-c5ccccc5)c5ccccc5c4=O)oc23)CC1 [Example 14, 3-[5,7-Dihydroxy-8-(1-methyl-1,2,5,6-tetrahydropyridin-4-yl)4-oxo-4H-1-benzopyran-2-yl]-1-phenyl-1H-1,4-dihydroquinolin-4-one]
synergistic effect with cisplatin [1]: synergistic effect
synergistic effect with paclitaxel [2]: synergistic effect
number of the 11 lines tested with respect to which the compound has cytotoxic activity [3]: 5 of the 11

The next lines start with results.

melting point: 327 to 328 °C
Structure (SMILES): O=c1cc(-c2cn(-c3ccccc3)c3ccccc3c2=O)oc2ccccc12 [Example 8, 3-(4-Oxo-4H-1-benzopyran-2-yl)-1-phenyl-1H-quinolin-4-one]

melting point: 295 to 300 °C
Structure (SMILES): O=c1cc(-c2cn(-c3ccccc3)c3ccccc3c2=O)oc2cc(O)ccc12 [Example 2, 3-(7-Hydroxy-4-oxo-4H-1-benzopyran-2-yl)-1-phenyl-1H-quinolin-4-one]

melting point: > 300 °C
Structure (SMILES): O=c1c(-c2cc(=O)c3c(O)cccc3o2)cn(-c2ccccc2)c2ccccc12 [Example 6, 3-(5-Hydroxy-4-oxo-4H-1-benzopyran-2-yl)-1-phenyl-1H-quinolin-4-one]
apoptosis (TUNEL test) [4]: very high apoptosis
